Laboratory results taken from PubChem BioAssay (NCI).
Where “and” joins values, the source holds several entries; their conditions need not be identical. Equal values may be shown once.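 Each compound was tested at five concentrations against cells in 96-well plates for 48 hours. Here, GI50 denotes the concentration required for 50% inhibition of growth. TGI marks complete inhibition of growth.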

Columns and labels:
Test in all cases: inhibition of tumour cell growth, NCI panel, 48 h
[1] = tested on: NCI/ADR-RES ovarian
[2] = tested on: SN12C renal
[3] = tested on: ACHN renal
[4] = tested on: BT-549 breast
[5] = tested on: HCT-116 colon
[6] = tested on: MDA-MB-231 breast
[7] = tested on: NCI-H226 lung
[8] = tested on: T-47D breast
[9] = tested on: LOX IMVI melanoma
[10] = tested on: K-562 leukemia

Row | Structure (SMILES) | GI50 [1] [µM] | TGI [1] [µM] | GI50 [2] [µM] | TGI [2] [µM] | GI50 [3] [µM] | TGI [3] [µM] | GI50 [4] [µM] | TGI [4] [µM] | GI50 [5] [µM] | TGI [5] [µM] | GI50 [6] [µM] | TGI [6] [µM] | GI50 [7] [µM] | TGI [7] | GI50 [8] [µM] | TGI [8] [µM] | TGI [9] [µM] | TGI [10] | GI50 [9] [µM] | GI50 [10] [µM]
1 | COc1ccc(-c2nc(/C=N/Nc3cc(C)nc4ccc(Br)cc34)c(C)o2)cc1 | 2.03 | 4.48 | 1.93 | 3.62 | 1.73 | 3.11 | 1.67 | 3.11 | 1.84 | 3.36 | 1.93 | 3.72 | 2.09 | 4.64 µM | 1.78 | 3.69 | – | – | – | –
2 | O=C(O)C(Cc1c[nH]c2ccccc12)N1C(=O)c2ccccc2C1=O (stereo unspecified) | – | > 100 | – | > 100 | – | > 100 | – | > 100 | – | > 100 | – | > 100 | – | > 100 µM | – | > 100 | > 100 | – | – | –
3 | C(/C=C/N1CCCC1)=C\c1nc(N2CCCC2)c2ccccc2n1 | – | – | – | 29 | – | 30.8 | – | – | – | 33.8 | – | – | – | 39.7 µM | – | – | 32 | 35.6 µM | – | –
4 | COc1ccc(C2NC(=S)NC3=C2COc2ccc(F)cc23)cc1OC (stereo unspecified) | 18.9 | 44.4 | 15.1 | 50.1 | 13 | 39.2 | 27.9 | 83.3 | 16.6 | 57.1 | 8.37 | 53.5 | 16.3 | 70.4 µM | – | – | 27.6 | > 100 µM | 13.5 | 15.9
5 | O=C(/C(=N/Nc1cn[nH]c(=O)c1Cl)c1ccccc1)c1ccccc1 | – | 59.9 | – | > 100 | – | > 100 | – | – | – | 99.1 | – | 87.3 | – | > 100 µM | – | 62.7 | 66.9 | > 100 µM | – | –
6 | O=C(NOC(=O)c1ccc([N+](=O)[O-])cc1)c1ccc(Cl)cc1 | – | – | – | > 100 | – | > 100 | – | – | – | > 100 | – | – | – | – | – | – | – | > 100 µM | – | –
7 | Cc1cc(C)c2nccc(NCCCN(C)C)c2c1[N+](=O)[O-] | – | – | – | > 100 | – | > 100 | – | > 100 | – | > 100 | – | > 100 | – | – | – | > 100 | 51.9 | > 100 µM | – | –
8 | COC(=O)C1=C(C(=O)OC)C(C(=O)OC)C(C(=O)OC)C(C(=O)OC)(C(=O)OC)C(C(=O)OC)=C1C(=O)OC (stereo unspecified) | – | – | – | 27.5 | – | 28.4 | – | 32.1 | – | 19.6 | – | 40.1 | – | 25.1 µM | – | 50.8 | 28.2 | 22.4 µM | – | –
9 | Cc1cc(N(CCC#N)CCC#N)ccc1/C=C/C(=O)Nc1ccccc1Cl | – | – | – | > 100 | – | > 100 | – | – | – | > 100 | – | – | – | > 100 µM | – | – | > 100 | > 100 µM | – | –
10 | CC1(C)Oc2ccccc2N2O[C@@H]3C(=O)N(c4ccccc4)C(=O)[C@@H]3C21c1ccccc1 (stereo partly specified) | – | – | – | – | – | – | – | – | – | 59.7 | – | – | – | > 100 µM | – | – | – | > 100 µM | – | –
11 | O=c1ncccn1C1OC(CO)C(O)C1F (stereo unspecified) | – | – | – | > 100 | – | > 100 | – | – | > 100 | > 100 | – | – | – | > 100 µM | – | – | > 100 | > 100 µM | – | > 100
12 | COc1cc(/C=C2/C(=O)N(C(=O)c3ccccc3O)N=C2C)ccc1O | – | > 100 | – | > 39.1 | – | > 100 | – | – | – | > 100 | – | > 100 | – | 31.2 µM | – | > 100 | > 70.6 | > 100 µM | – | –
13 | COc1cc(-c2nn3c(=O)n(-c4ccc(Cl)cc4)c(=O)nc3s2)cc(OC)c1OC | – | – | > 50 | > 100 | > 50 | > 67.7 | – | – | – | > 100 | – | – | > 50 | > 100 µM | – | – | > 50 | 50 µM and > 31.6 µM | > 50 | 15.8
14 | O=c1c2ccccc2c(=O)c2c1sc1c(=O)c3ccc(O)cc3c(=O)c12 | 1.45 | 6.87 | 0.187 | 0.36 | 0.864 | 2.38 | 0.163 | 0.33 | 0.651 | 3.9 | 1.72 | 8.19 | – | – | 2.04 | 6.3 | – | > 100 µM | – | 0.715
15 | CN1C(=O)CC2(C)c3cc(C=O)ccc3N(C)C12 (stereo unspecified) | – | – | – | > 100 | – | > 100 | – | – | – | > 100 | – | – | – | > 100 µM | – | – | > 100 | > 100 µM | – | –
16 | O=C1Cc2ccccc2CCc2ccccc21 | – | – | – | > 100 | – | > 100 | – | – | – | > 100 | – | – | – | > 100 µM | – | – | > 100 | > 100 µM | – | –
17 | CCC1(Cl)C(=O)NC(=O)N(C2CC(O)C(CO)O2)C1N=[N+]=[N-] (stereo unspecified) | – | – | – | > 100 | – | > 100 | – | – | – | – | – | – | – | – | – | – | > 100 | > 100 µM | – | –
18 | O=C1Nc2ccc(Br)cc2C1=Nc1ccc(Cl)cc1 | – | 62.3 | – | 31.2 | – | 39.1 | – | – | – | 62.9 | – | 45.9 | – | 58.8 µM | – | > 100 | 31.8 | 73.3 µM | – | –
19 | COc1ccccc1-c1nccc(COc2ccccc2C[C@@H](Oc2ncnc3sc(-c4ccc(F)cc4)c(-c4ccc(OCCN5CCN(C)CC5)c(Cl)c4C)c23)C(=O)O)n1 | 18.2 | > 100 | 1.75 | 3.83 | 5.07 | 15.3 | 1.03 | 2.59 | 2.43 | 6.55 | 1.61 | 3.29 | 3 | 10.9 µM | 3.49 | 23 | – | > 33.6 µM | – | 3.01
20 | COc1cc2c(c(OC)c1OC)-c1ccc(SC)c(=O)cc1[C@@H](NC(=O)c1ccc(F)cc1)CC2 | – | – | < 0.01 | 46.8 | < 0.01 | 91.3 | – | – | < 0.01 | < 0.01 | – | – | < 0.01 | 0.0744 µM and < 0.01 µM | – | – | – | > 100 µM | – | < 0.01
21 | CCOc1ccccc1NC(=O)CCC(=O)NN | – | – | – | > 100 | – | > 100 | – | – | – | > 100 | – | – | – | > 100 µM | – | – | > 100 | > 100 µM | – | –
22 | BrC(Br)([P+](c1ccccc1)(c1ccccc1)c1ccccc1)[P+](c1ccccc1)(c1ccccc1)c1ccccc1 | – | – | – | 61.3 | – | 69.3 | – | – | – | 46 | – | – | – | 73 µM | – | – | 27.2 | – | – | –
